In patent US10130651B2, “RNAi Therapy for Hepatitis B Virus Infection” (Arrowhead Pharmaceuticals, Inc., priority 2015, dated 2018):

Tests used:
Format in all cases: in vivo, NOD-SCID mice (pHBV model)
[1] = system: HBsAg, Hepatitis B Virus; experiment: Serum HBsAg in pHBV mice after MLP delivery peptide plus AD01385 and/or AD01386 (Example 10, Tables 17, 18); settings: 3 mg/kg MLP delivery peptide plus […] of each RNAi trigger; for Mean HBsAg in serum: single IV
Experimental: At day −28, 6 to 8 week old female NOD.CB17-Prkdscid/NcrCrl (NOD-SCID) mice were transiently transfected in vivo with MC-HBV 1.3 by hydrodynamic tail vein injection as described.
CDM-NAG was added to MLP, SEQ ID NO: 650 (GIL MLP, L-form), in a 250 mM HEPES-buffered aqueous solution at a 5:1 (w/w) ratio at room temperature and incubated for 30 min to yield MLP delivery peptide. The reaction mixture was adjusted to pH 9.0 with 4 M NaOH. The extent of the reaction was assayed using 2,4,6-trinitrobenzene-sulfonic acid and determined to be >95%. MLP delivery peptide was purified by tangential flow in 10 mM bicarbonate buffer, pH 9.0, to which 10% dextran (w/w) was added. The final purified material was lyophilized.
5 mg lyophilized MLP delivery peptide was resuspended with 1 mL water. MLP delivery peptide was then combined with HBV RNAi triggers (AD01385 or AD01386) at the various dose levels.
At Day 1, each mouse was given a single IV administration via tail vein of 200 μl per 20 gram body weight of saline containing MLP delivery peptide+HBV RNAi triggers.
At various time points, before and after administration of MLP delivery peptide+HBV RNAi triggers, serum HBsAg and serum HBV DNA were measured. The HBsAg level in serum for each animal at a time point was divided by the pre-treatment level in that animal in order to determine the ratio of HBsAg in serum “normalized to pre-treatment”. The HBV DNA level in serum for each group at a time point was also divided by the pre-treatment level in that group in order to determine the ratio of HBV DNA in serum “normalized to pre-treatment”. In order to account for non-treatment related decline in expression of MC-HBV 1.3 or pHBV 1.3.—the “normalized to pre-treatment” ratio for an individual animal at a time point was then divided by the average “normalized to pre-treatment” ratio of all mice in the saline control group at the same time point to obtain the ratio of HBsAg, or HBV DNA, in serum “normalized to pre-treatment and control”.
Mice were anesthetized with 2-3% isoflurane and blood samples were collected from the submandibular area into serum separation tubes (Sarstedt AG & Co., Nümbrecht, Germany). Blood was allowed to coagulate at ambient temperature for 20 min. The tubes were centrifuged at 8,000×g for 3 min to separate the serum and stored at 4° C.
Serum Hepatitis B surface antigen (HBsAg) and Serum HBV DNA levels were measured as described.

[2] = system: HBV DNA, Hepatitis B Virus; experiment: Serum HBV DNA in pHBV mice after MLP delivery peptide plus AD01385 and/or AD01386 (Example 10, Tables 19, 20); settings: 3 mg/kg MLP delivery peptide plus […] of each RNAi trigger; for Mean HBV DNA in serum: single IV
[3] = system: HBsAg, Hepatitis B Virus; experiment: Serum HBsAg in pHBV mice after MLP delivery peptide plus AD01385 and/or AD01386 (Example 10, Tables 17, 18); settings: 3 mg/kg MLP delivery peptide plus […] of each RNAi trigger; for Mean HBsAg in serum: single IV; remark: listed apart in the source

Substance | Mean HBsAg in serum ([1]; day 5) [ng/mL] | Mean HBsAg in serum ([1]; day 22) [ng/mL] | Mean HBsAg in serum ([1]; day 36) [ng/mL] | HBsAg in serum (mean ± SD) (normalized to pre-dose and saline control group) ([1]; day 5) | HBsAg in serum (mean ± SD) (normalized to pre-dose and saline control group) ([1]; day 8) | HBsAg in serum (mean ± SD) (normalized to pre-dose and saline control group) ([1]; day 15) | HBsAg in serum (mean ± SD) (normalized to pre-dose and saline control group) ([1]; day 22) | HBsAg in serum (mean ± SD) (normalized to pre-dose and saline control group) ([1]; day 29) | Mean HBV DNA in serum ([2]; day 5) | Mean HBV DNA in serum ([2]; day 8) | Mean HBV DNA in serum ([2]; day 15) | Mean HBV DNA in serum ([2]; day 22) | Mean HBV DNA in serum ([2]; day 29) | Mean HBV DNA in serum ([2]; day 36) | Mean HBV DNA in serum ([2]; day −2 (pre-dose)) | Mean HBV DNA in serum (normalized to pre-dose and saline control group) ([2]; day 5) | Mean HBV DNA in serum (normalized to pre-dose and saline control group) ([2]; day 8) | Mean HBV DNA in serum (normalized to pre-dose and saline control group) ([2]; day 15) | Mean HBV DNA in serum (normalized to pre-dose and saline control group) ([2]; day 22) | Mean HBV DNA in serum (normalized to pre-dose and saline control group) ([2]; day 29) | further results
AD01385: duplex AM02315-AS/AM02319-SS (TEG) (antisense TAUGAUAAAACGCCGCAGATT; sense UAUUCUGCGGCGUUUUAUCAUAT; siRNA; TEG, chemistry not fully specified) | 878 ± 697 | 2163 ± 1255 | 2067 ± 870 | 0.108 ± 0.026 | 0.282 ± 0.030 | 0.665 ± 0.135 | 0.589 ± 0.109 | 0.660 ± 0.175 | 9.84 × 10^6 copies/mL | 1.64 × 10^7 copies/mL | 7.69 × 10^7 copies/mL | 7.60 × 10^7 copies/mL | 7.69 × 10^7 copies/mL | 6.91 × 10^7 copies/mL | 2.04 × 10^8 copies/mL | 0.050 ± 0.000 | 0.087 ± 0.020 | 0.474 ± 0.029 | 0.510 ± 0.074 | 0.571 ± 0.034 | Mean HBV DNA in serum (normalized to pre-dose and saline control group) ([2]; day 36): 0.582 ± 0.040; Mean HBV DNA in serum (normalized to pre-dose and saline control group) ([2]; day −2 (pre-dose)): 1.000 ± 0.000; Mean HBsAg in serum ([3]; day 8): 1905 ± 1232 ng/mL; Mean HBsAg in serum ([3]; day 15): 2309 ± 1315 ng/mL; Mean HBsAg in serum ([3]; day 29): 2418 ± 1470 ng/mL; Mean HBsAg in serum ([3]; day −2 (pre-dose)): 7218 ± 4071 ng/mL; HBsAg in serum (mean ± SD) (normalized to pre-dose and saline control group) ([3]; day 36): 0.592 ± 0.140; HBsAg in serum (mean ± SD) (normalized to pre-dose and saline control group) ([3]; day −2 (pre-dose)): 1.000 ± 0.000
AD01386: duplex AM02312-AS/AM02320-SS (C6) (antisense TACCAAUUUAUGCCUACAGTT; sense UAUCUGUAGGCAUAAAUUGGUAT; siRNA; C6, chemistry not fully specified) | 125 ± 98 | 738 ± 670 | 2252 ± 1565 | 0.021 ± 0.007 | 0.016 ± 0.008 | 0.078 ± 0.027 | 0.237 ± 0.041 | 0.526 ± 0.045 | 4.42 × 10^6 copies/mL | 2.37 × 10^6 copies/mL | 1.04 × 10^8 copies/mL | 4.94 × 10^7 copies/mL | 1.04 × 10^8 copies/mL | 9.53 × 10^7 copies/mL | 2.24 × 10^8 copies/mL | 0.020 ± 0.002 | 0.011 ± 0.002 | 0.153 ± 0.004 | 0.303 ± 0.048 | 0.710 ± 0.080 | Mean HBV DNA in serum (normalized to pre-dose and saline control group) ([2]; day 36): 0.728 ± 0.022; Mean HBV DNA in serum (normalized to pre-dose and saline control group) ([2]; day −2 (pre-dose)): 1.000 ± 0.000; Mean HBsAg in serum ([3]; day 8): 109 ± 120 ng/mL; Mean HBsAg in serum ([3]; day 15): 273 ± 321 ng/mL; Mean HBsAg in serum ([3]; day 29): 1627 ± 1487 ng/mL; Mean HBsAg in serum ([3]; day −2 (pre-dose)): 6219 ± 5606 ng/mL; HBsAg in serum (mean ± SD) (normalized to pre-dose and saline control group) ([3]; day 36): 0.808 ± 0.151; HBsAg in serum (mean ± SD) (normalized to pre-dose and saline control group) ([3]; day −2 (pre-dose)): 1.000 ± 0.000
